Biological target: T1, human CCR6 (Homo sapiens, UniProt P51684)
T1 construct: expressed in transfected cells; host or cells: HEK-293
T1 sequence (P51684 1-374): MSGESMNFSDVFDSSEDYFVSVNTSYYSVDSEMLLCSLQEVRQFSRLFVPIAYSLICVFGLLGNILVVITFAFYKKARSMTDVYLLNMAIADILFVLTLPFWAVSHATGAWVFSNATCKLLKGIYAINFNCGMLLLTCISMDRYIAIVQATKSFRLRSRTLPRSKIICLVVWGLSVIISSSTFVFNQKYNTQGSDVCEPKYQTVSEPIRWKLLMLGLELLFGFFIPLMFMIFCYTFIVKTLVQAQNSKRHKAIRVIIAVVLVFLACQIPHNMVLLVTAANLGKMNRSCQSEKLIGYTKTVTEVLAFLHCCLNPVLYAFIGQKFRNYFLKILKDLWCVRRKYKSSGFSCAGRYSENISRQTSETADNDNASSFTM
Test: FLIPR assay (inhibition of CCL20-induced calcium signal)
Type: cell-based
Conditions: HEK-293 cells expressing human CCR6; mean values where determined several times; read-out: FLIPR IC50
Procedure, shortened: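 IC50 values come from baseline-corrected peak calcium fluorescence after agonist. The agonist was CCL20 at 10 nM final, added to engineered human CCR6 HEK-293 cells following a 30-min, room-temperature, dark preincubation with serially diluted compound. Readings were taken in a fluorometric imaging plate reader.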

| IC50 [nM] | SMILES |
| --- | --- |
| 46.2 | Cc1cccc(C(C)(O)C#Cc2cncc([C@@](O)(c3ccc(C4(C(F)(F)F)CC4)cc3)C3(C)CN(C)C3)c2)n1 (stereo partly shown) [Example 654] |
| 86.6 | CCc1ccc([C@](O)(c2cncc(C#CC(C)(O)c3cccc(C)n3)c2)C2(C)CN(C)C2)cc1 (stereo partly shown) [Example 657] |
| 86.6 | Cc1cccc(C(C)(O)C#Cc2cncc([C@@](O)(c3ccc(C(C)(C)C)cc3)C3(C)CN(C)C3)c2)n1 (stereo partly shown) [Example 658] |
| 82.4 | Cc1cccc(C(C)(O)C#Cc2cncc([C@@](O)(c3ccc(CC(F)(F)F)cc3)C3(C)CN(C)C3)c2)n1 (stereo partly shown) [Example 660] |
| 211 | CC(C)c1ccc([C@](O)(c2cnnc(C#CC(C)(C)N3CCCC3=O)c2)C2(C)CN(C)C2)cc1 [Example 664] |
| 42.8 | Cc1cccc(C(C)(O)C#Cc2cncc([C@@](O)(c3ccc(C(C)C)cc3)C3(C)CN(C4CC4)C3)c2)n1 (stereo partly drawn) [Example 670, 4-{5-[(R)-(1-Cyclopropyl-3-methyl-azetidin-3-yl)-hydroxy-(4-isopropyl-phenyl)-methyl]-pyridin-3-yl}-2-(6-methyl-pyridin-2-yl)-but-3-yn-2-ol] |
| 172 | Cc1ncc(C2CC(=O)N(c3cncc([C@@](O)(c4ccc(C(C)C)cc4)C4(C)CN(C)C4)c3)C2)s1 (stereo partly shown) [Example 672] |
| 199 | Cc1ccc(C2CC(=O)N(c3cncc([C@@](O)(c4ccc(C(C)C)cc4)C4(C)CN(C)C4)c3)C2)cn1 (stereo partly shown) [Example 673] |
| 227 | CC(C)c1ccc([C@](O)(c2cncc(N3CC(c4ccc(C(F)(F)F)nc4)CC3=O)c2)C2(C)CN(C)C2)cc1 (stereo partly shown) [Example 675] |
| 156 | CC(C)c1ccc([C@](O)(c2cncc(N3CC(c4cnn(C(F)F)c4)CC3=O)c2)C2(C)CN(C)C2)cc1 (stereo partly shown) [Example 678] |
| 281 | CC(C)c1ccc([C@](O)(c2cnnc(N3CC4OCCC4C3=O)c2)C2(C)CN(C)C2)cc1 (stereo partly drawn) [Example 681, 5-{5-[(R)-(1,3-Dimethyl-azetidin-3-yl)-hydroxy-(4-isopropyl-phenyl)-methyl]-pyridazin-3-yl}-hexahydro-furo[2,3-c]pyrrol-4-one] |
| 7.98 | CC(C)c1ccc([C@](O)(c2cnnc(N3CC(c4cccc(C(C)C)n4)CC3=O)c2)C2(C)CN(C)C2)cc1 (stereo partly drawn) [Example 682, 1-{5-[(R)-(1,3-Dimethyl-azetidin-3-yl)-hydroxy-(4-isopropyl-phenyl)-methyl]-pyridazin-3-yl}-4-(6-isopropyl-pyridin-2-yl)-pyrrolidin-2-one] |

Continued, compound first:

| SMILES | IC50 [nM] |
| --- | --- |
| Cc1ncc(C(C)(O)CCc2cncc([C@@](O)(c3ccc(C(C)C)cc3)C3(C)CN(C)C3)c2)s1 (stereo partly shown) [Example 647] | 76.3 |
| Cc1cc(C(C)(O)C#Cc2cncc([C@@](O)(c3ccc(C(C)C)cc3)C3(C)CN(C)C3)c2)on1 (stereo partly shown) [Example 648] | 46.6 |
| CC(C)c1ccc([C@](O)(c2cncc(C#CC(C)(O)c3nccn3C)c2)C2(C)CN(C)C2)cc1 (stereo partly shown) [Example 649] | 185 |
| Cc1ccc(C(C)(O)C#Cc2cncc([C@@](O)(c3ccc(C(C)C)cc3)C3(C)CN(C)C3)c2)s1 (stereo partly shown) [Example 650] | 15.9 |
| CC(C)c1ccc([C@](O)(c2cncc(C#CC(C)(O)c3cccn3C)c2)C2(C)CN(C)C2)cc1 (stereo partly shown) [Example 651] | 16.1 |
| Cc1cccc(C(C)(O)C#Cc2cncc([C@@](O)(c3ccc(C4(C)CC4)cc3)C3(C)CN(C)C3)c2)n1 (stereo partly shown) [Example 655] | 55 |
| Cc1cccc(C(C)(O)C#Cc2cncc([C@@](O)(c3ccc(C(F)(F)F)cc3)C3(C)CN(C)C3)c2)n1 (stereo partly shown) [Example 656] | 208 |
| CCC1([C@](O)(c2ccc(OC(F)(F)F)cc2)c2cncc(C#CC(C)(O)c3cccc(C)n3)c2)CN(C)C1 (stereo partly shown) [Example 659] | 344 |
| Cc1cccc(C(C)(O)C#Cc2cncc([C@@](O)(c3ccc(C(C)C)cc3)C3(F)CN(C)C3)c2)n1 (stereo partly shown) [Example 661] | 54.3 |
| CC(=O)N1CCC(C#Cc2cc([C@@](O)(c3ccc(C(C)C)cc3)C3(C)CN(C)C3)cnn2)CC1 [Example 662] | 331 |
| CC(=O)NC(C)(C)C#Cc1cc([C@@](O)(c2ccc(C(C)C)cc2)C2(C)CN(C)C2)cnn1 [Example 663] | 992 |
| Cc1cccc(C(C)(O)C#Cc2cncc([C@@](O)(c3ccc(C(C)C)cc3)C3(C)CN(C(C)C)C3)c2)n1 (stereo partly shown) [Example 665] | 40.4 |
| Cc1cccc(C(C)(O)C#Cc2cncc([C@@](O)(c3ccc(C(C)C)cc3)C3(C)CN(CCO)C3)c2)n1 (stereo partly shown) [Example 667] | 52.4 |
| Cc1cccc(C(C)(O)C#Cc2cncc([C@@](O)(c3ccc(C(C)C)cc3)C3(C)CN(CC(F)F)C3)c2)n1 (stereo partly shown) [Example 668] | 101 |
| CC(=O)N1CCC(COc2cncc([C@@](O)(c3ccc(C(C)C)cc3)C3(C)CN(C)C3)c2)CC1 [Example 669, 1-(4-{5-[(R)-(1,3-Dimethyl-azetidin-3-yl)-hydroxy-(4-isopropyl-phenyl)-methyl]-pyridin-3-yloxymethyl}-piperidin-1-yl)-ethanone] | 62.1 |
| CC(C)c1ccc([C@](O)(c2cncc(N3CC(c4cccc(C(C)C)n4)CC3=O)c2)C2(C)CN(C)C2)cc1 (stereo partly shown) [Example 674] | 25.9 |
| CC(C)c1ccc([C@](O)(c2cncc(N3CC(c4cnn(C)c4)CC3=O)c2)C2(C)CN(C)C2)cc1 (stereo partly shown) [Example 676] | 108 |
| CC(=O)N1CCC(C2CC(=O)N(c3cc([C@@](O)(c4ccc(C(C)C)cc4)C4(C)CN(C)C4)cnn3)C2)CC1 (stereo partly drawn) [Example 680, 4-(1-Acetyl-piperidin-4-yl)-1-{5-[(R)-(1,3-dimethyl-azetidin-3-yl)-hydroxy-(4-isopropyl-phenyl)-methyl]-pyridazin-3-yl}-pyrrolidin-2-one] | 428 |
| CC(=O)N1CCc2nc(-c3cncc([C@@](O)(c4ccc(C(C)C)cc4)C4(C)CN(C)C4)c3)ncc2C1 [Example 683, 1-(2-{5-[(R)-(1,3-Dimethyl-azetidin-3-yl)-hydroxy-(4-isopropyl-phenyl)-methyl]-pyridin-3-yl}-7,8-dihydro-5H-pyrido[4,3-d]pyrimidin-6-yl)-ethanone] | 105 |
| CC(=O)N1CCc2nc(-c3cncc([C@@](O)(c4ccc(C(C)C)cc4)C4(C)CN(C)C4)c3)ccc2C1 [Example 684, 1-(2-{5-[(R)-(1,3-Dimethyl-azetidin-3-yl)-hydroxy-(4-isopropyl-phenyl)-methyl]-pyridin-3-yl}-7,8-dihydro-5H-[1,6]naphthyridin-6-yl)-ethanone] | 125 |
| CC(=O)N1CCC(c2cnc(-c3cncc([C@@](O)(c4ccc(C(C)C)cc4)C4(C)CN(C)C4)c3)nc2)CC1 [Example 685, 1-[4-(2-{5-[(R)-(1,3-Dimethyl-azetidin-3-yl)-hydroxy-(4-isopropyl-phenyl)-methyl]-pyridin-3-yl}-pyrimidin-5-yl)-piperidin-1-yl]-ethanone] | 242 |
| CC(=O)N1CCC(c2ccnc(-c3cncc([C@@](O)(c4ccc(C(C)C)cc4)C4(C)CN(C)C4)c3)n2)CC1 [Example 686, 1-[4-(2-{5-[(R)-(1,3-Dimethyl-azetidin-3-yl)-hydroxy-(4-isopropyl-phenyl)-methyl]-pyridin-3-yl}-pyrimidin-4-yl)-piperidin-1-yl]-ethanone] | 145 |
